The values that follow come from PMC12836451, “Cyclic Peptide–Polymer Conjugate Nanotubes for Delivery of SN‐38 in Treatment of Colorectal Cancer Model” (Advanced Healthcare Materials, 2025).

Counter-ions that a name gives are not always drawn. Like-named read-outs stand apart in the source and are kept apart here.

A short description of data set [1]: Pharmacokinetics study in mice (plasma, LC-MS, non-compartmental). As to conditions: non-tumor female BALB/c mice, i.v., irinotecan 15 mg kg−1 or SN-38 nanotubes 10 mg kg−1 drug, SN-38 = prodrug and hydrolysed forms combined.
In another data set the test system is CT26 xenograft. As to conditions: CT26 xenograft mice, three i.v. doses.
A further data set deals with CT26 spheroids. As to the kind of experiment: 3D spheroid growth assay. The format is cell-based, murine. As to conditions: 10 µM, control grew by over 300 µm. Here is the method:
CT26 cells were harvested and seeded in a non‐tissue culture‐treated, U‐bottom‐shaped 96‐well plates at a density of 500 cells per well (200 µL media per well), before centrifugation at 500 xG for 10 minutes. The plate incubated and the spheroids allowed to form over a period of days (typically 5–8). […] Non‐treated/Control spheroids received fresh media.

For data set [2] the following is noted: cited from earlier work. The text has this: Despite significant scientific advances in recent decades, cancer remains one of the most formidable challenges for modern medicine. The rising rates of colorectal cancer (CRC) diagnoses, particularly amongst younger people, exemplify the new complexities faced. Despite efforts to promote early detection and fast onset of treatment, the prognosis for CRC remains grim, ranking as one of the deadliest malignancies worldwide.

Another data set relates to CT26 cells. As to the kind of experiment: MTS cell viability assay. In kind it is cell-based, murine. Conditions: Mus musculus, CT26, 48 h. Here is the method:
Cells were typically grown to 70–80% confluence before passaging, and cells were not used past 20 passages total.
The wells were then treated with 20 µL of MTS reagent (Promega, CellTiter 96 AQeuous One Solution Cell Proliferation Assay) for 4 h, before UV absorbance reading on Biotek Cytation 3 Plate reader (490 nm). The relative cell viability was determined by comparison to untreated cells or cells with DMSO or EtOH at a range of concentrations.

As for `CCc1c2c(nc3ccc(OC(=O)N4CCC(N5CCCCC5)CC4)cc13)-c1cc3c(c(=O)n1C2)COC(=O)[C@]3(O)CC` [Irinotecan, irinotecan hydrochloride], the C max in data set [1] was 29.6 µM. Moreover, the “tolerability (body weight, welfare scoring)” value in the data set with CT26 xenograft was “well tolerated”. Besides, the “increase of spheroid diameter over 5 days” value in the data set with CT26 spheroids is 40 µm. For the same compound, the “reduction of potency compared to SN-38” value in data set [2] was 100–1000 fold. For the same compound, the IC50 in the data set with CT26 cells (n = 3, read-out: concentration required to achieve more than 50% cell death) was over 10000 nM.

Turning to `CCc1c2c(nc3ccc(O)cc13)-c1cc3c(c(=O)n1C2)COC(=O)[C@]3(O)CC` [SN-38, 7‐ethyl‐10‐hydroxycamptothecin], the aqueous solubility entry in data set [2] (reason for not testing in vivo) is “poor aqueous solubility”. In addition, the IC50 in the data set with CT26 cells (concentrations are SN-38 concentration, n = 3, read-out: IC50) is about 200 nM.
